Reference: patent US11370779B2, “Pharmaceutical composition for preventing or treating acute myeloid leukemia or metastatic breast cancer” (PELEMED CO., LTD., priority 2017, dated 2022)
Where a name gives a salt, the structure may show the parent alone.

Columns and labels:
[1] = molecular target: FLT3 kinase (Homo sapiens (Human), UniProt P36888); test: In vitro FLT3 kinase HTRF assay (Example 2); type: biochemical; settings: Table 1; HTRF, recombinant FLT3 kinase domain, 500 μM ATP
Protocol: Inhibition of the FLT3 kinase activity was measured using homogeneous, time-resolved fluorescence (HTRF) assays. Recombinant proteins containing the FLT3 kinase domain were purchased from Carna biosciences (Japan). Optimal enzyme, ATP, and substrate concentrations were established using the HTRF KinEASE kit (Cisbio, France) according to the manufacturer's instructions. The FLT3 enzymes were mixed in sequence with diluted compounds and peptide substrates in a kinase reaction buffer (50 mM HEPES (pH 7.0), 500 μM ATP, 0.1 mM sodium orthovanadate, 5 mM MgCl2, 1 mM DTT, 0.01% bovine serum albumin (BSA), and 0.02% NaN3). After the addition of the reagents for detection, the TR-FRET signal was measured using a Victor multilabel reader (Perkin Elmer, Waltham, Mass., USA). […] JAK2, JAK3, cMET, and RET in vitro kinase assays were also performed using the HTRF assay.

[2] = tested on: MV4;11 cells; test: Cell viability, EZ-Cytox tetrazolium assay, MV4;11; type: cell-based, human; settings: Homo sapiens, MV4-11, 72 hours; for IC50: Table 1; for GI50: read-out: GI50(nM) MV4;11
Protocol: The cultured cells were incubated at 3° C. with 5% CO2.
(§1) Cell viability was assessed by a tetrazolium-based assay using the EZ-Cytox Cell Viability Assay kit (DaeilLab, Korea). Briefly, 2,000 to 15,000 cells were plated in 96-well plates in 100 μl of medium. The next day, the cells were treated with compounds together with dimethyl sulfoxide (DMSO) as a negative control. Three days (72 hours) after the drug addition, 15 μl of the EZ-Cytox kit reagent was added to each well of the 96-well plate and then incubated at 37° C. in a humidified CO2 incubator for 4 hours. After incubation, the optical density (OD) was measured at a wavelength of 450 nm using a Victor multilabel reader (Perkin Elmer, Waltham, Mass., USA).

[3] = tested on: MDA-MB-231; test: Cell viability, EZ-Cytox tetrazolium assay, MDA-MB-231; type: cell-based, human; settings: Homo sapiens, MDA-MB-231; 72 hours
Protocol: MDA-MB-231 (metastatic breast cancer, ATCC HTB-26), Jurkat (human acute T lymphocytic leukemia, ATCC TIB-152), and K-562 (human chronic myelogenous leukemia, ATCC CCL-243) cells were cultured in RPMI-1640 (Sigma Co.). MCF7 (human breast adenocarcinoma, ATCC HTB-22) and PC-3 (human prostate adenocarcinoma, ATCC CRL-1435) cells were cultured in DMEM (Sigma Co.) medium supplemented with 10% fetal bovine serum and 1% penicillin/streptomycin. The cultured cells were incubated at 3° C. with 5% CO2.
as §1, with “USA). The IC50 was calculated by nonlinear regression using Prism version 5.01 (GraphPad, La Jolla, Calif., USA).” for “USA).”

Sequence of FLT3 kinase (P36888 610-943): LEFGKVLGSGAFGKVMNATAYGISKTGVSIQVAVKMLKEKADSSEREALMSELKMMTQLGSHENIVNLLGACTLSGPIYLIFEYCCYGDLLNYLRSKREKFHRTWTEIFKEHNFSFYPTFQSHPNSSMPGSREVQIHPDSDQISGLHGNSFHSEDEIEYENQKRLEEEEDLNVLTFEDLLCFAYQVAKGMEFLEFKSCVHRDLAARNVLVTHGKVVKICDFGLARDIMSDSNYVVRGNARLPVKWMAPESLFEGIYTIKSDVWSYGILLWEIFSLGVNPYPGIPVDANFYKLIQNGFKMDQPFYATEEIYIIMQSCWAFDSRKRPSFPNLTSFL

Row | IC50 [1] | Structure (SMILES) | IC50 [2] | GI50 [2] | GI50 [3]
1 | 19 nM | COC(=O)c1ccc2c(c1)/C(=C1/Nc3ccccc3/C1=N\OCCBr)C(=O)N2 [Compound 2, Methyl (2Z,3E)-3-((2-bromoethoxy)imino)-2′-oxo-[2,3′-biindolinylidene]-5′-carboxylate] | 51 nM | – | –
2 | 5 nM | COC(=O)c1ccc2c(c1)/C(=C1/Nc3ccccc3/C1=N\OCCN)C(=O)N2 [Compound 3, Methyl (2Z,3E)-3-((2-aminoethoxy)imino)-2′-oxo-[2,3′-biindolinylidene]-5′-carboxylate hydrochloride] | 15 nM | – | –
3 | – | COC(=O)c1ccc2c(c1)/C(=C1/Nc3ccccc3/C1=N\OCCN1CCN(C)CC1)C(=O)N2 [Compound 5, Methyl (2Z,3E)-3-((2-(4-methylpiperazin-1-yl)ethoxy)imino)-2′-oxo-[2,3′-biindolinylidene]-5′-carboxylate dihydrochloride] | 11 nM | – | –
4 | – | COC(=O)c1ccc2c(c1)/C(=C1/Nc3ccccc3/C1=N\OCCN1CCOCC1)C(=O)N2 [Compound 6, Methyl (2Z,3E)-3-((2-morpholinoethoxy)imino)-2′-oxo-[2,3′-biindolinylidene]-5′-carboxylate hydrochloride] | 53 nM | – | –
5 | – | CN1CCN(CCO/N=C2/C(=C3/C(=O)Nc4ccc([N+](=O)[O-])cc43)Nc3ccc(O)cc32)CC1 [Compound 14, (2Z,3E)-5-hydroxy-3-((2-(4-methylpiperazin-1-yl)ethoxy)imino)-5′-nitro-[2,3′-biindolinylidene]-2′-one dihydrochloride] | – | 50 nM | 29.1 nM
6 | – | NCCO/N=C1/C(=C2/C(=O)Nc3ccc([N+](=O)[O-])cc32)Nc2ccccc21 [Compound 15, (2Z,3E)-3-((2-aminoethoxy)imino)-5′-nitro-[2,3′-biindolinylidene]-2′-one hydrochloride] | – | – | > 1 nM
7 | – | O=C1Nc2ccc([N+](=O)[O-])cc2/C1=C1/Nc2ccccc2/C1=N\OCCN1CCNCC1 [Compound 16, (2Z,3E)-5′-nitro-3-((2-(piperazin-1-yl)ethoxy)imino)-[2,3′-biindolinylidene]-2′-one dihydrochloride] | – | 7.01 nM | 74.3 nM
8 | – | O=C1Nc2ccc([N+](=O)[O-])cc2/C1=C1/Nc2ccc(F)cc2/C1=N\OCCN1CCNCC1 [Compound 17, (2Z,3E)-5-fluoro-5′-nitro-3-((2-(piperazin-1-yl)ethoxy)imino)-[2,3′-biindolinylidene]-2′-one dihydrochloride] | – | 10.2 nM | 88.8 nM
9 | – | CN1CCN(CCO/N=C2/C(=C3/C(=O)Nc4ccc([N+](=O)[O-])cc43)Nc3ccc(F)cc32)CC1 [Compound 18, (2Z,3E)-5-fluoro-3-((2-(4-methylpiperazin-1-yl)ethoxy)imino)-5′-nitro-[2,3′-biindolinylidene]-2′-one dihydrochloride] | – | 118 nM | 69.7 nM
10 | – | O=C1Nc2ccc([N+](=O)[O-])cc2/C1=C1/Nc2ccc(F)cc2/C1=N\OCCN1CCCCC1 [Compound 19, (2Z,3E)-5-fluoro-5′-nitro-3-((2-(piperidin-1-yl)ethoxy)imino)-[2,3′-biindolinylidene]-2′-one hydrochloride] | – | 1.49 nM | 804 nM
11 | – | O=C1Nc2ccc([N+](=O)[O-])cc2/C1=C1/Nc2ccc(F)cc2/C1=N\OCCN1CCCC1 [Compound 20, (2Z,3E)-5-fluoro-5′-nitro-3-((2-(pyrrolidin-1-yl)ethoxy)imino)-[2,3′-biindolinylidene]-2′-one hydrochloride] | – | 447 nM | 144 nM
12 | – | CN1CCN(CCO/N=C2/C(=C3/C(=O)Nc4ccc(F)cc43)Nc3ccc(F)cc32)CC1 [Compound 22, (2Z,3E)-5,5′-difluoro-3-((2-(4-methylpiperazin-1-yl)ethoxy)imino)-[2,3′-biindolinylidene]-2′-one dihydrochloride] | – | – | 600 nM
13 | – | O=C1Nc2ccc(F)cc2/C1=C1/Nc2ccc(F)cc2/C1=N\OCCN1CCCCC1 [Compound 23, (2Z,3E)-5,5′-difluoro-3-((2-(piperidin-1-yl)ethoxy)imino)-[2,3′-biindolinylidene]-2′-one hydrochloride] | – | 3.19 nM | > 1 nM
14 | – | O=C1Nc2ccc(F)cc2/C1=C1/Nc2ccc(F)cc2/C1=N\OCCN1CCCC1 [Compound 24, (2Z,3E)-5,5′-difluoro-3-((2-(pyrrolidin-1-yl)ethoxy)imino)-[2,3′-biindolinylidene]-2′-one hydrochloride] | – | 634 nM | 347 nM
15 | – | NC1CCN(CCO/N=C2/C(=C3/C(=O)Nc4ccc(F)cc43)Nc3ccc(F)cc32)CC1 [Compound 25, (2Z,3E)-3-((2-(4-aminopiperidin-1-yl)ethoxy)imino)-5,5′-difluoro-[2,3′-biindolinylidene]-2′-one dihydrochloride] | – | 85.7 nM | > 1 nM
16 | – | CN1CCN(CCO/N=C2/C(=C3/C(=O)Nc4ccccc43)Nc3ccccc32)CC1 [Compound 29, (2Z,3E)-3-((2-(4-methylpiperazin-1-yl)ethoxy)imino)-[2,3′-biindolinylidene]-2′-one dihydrochloride] | – | 54.8 nM | 483 nM
17 | – | O=C1Nc2ccccc2/C1=C1/Nc2ccccc2/C1=N\OCCN1CCCCC1 [Compound 30, (2Z,3E)-3-((2-(piperidin-1-yl)ethoxy)imino)-[2,3′-biindolinylidene]-2′-one hydrochloride] | – | 138 nM | > 1 nM
18 | – | O=C1Nc2ccccc2/C1=C1/Nc2ccccc2/C1=N\OCCN1CCCC1 [Compound 31, (2Z,3E)-3-((2-(pyrrolidin-1-yl)ethoxy)imino)-[2,3′-biindolinylidene]-2′-one hydrochloride] | – | 104 nM | 313 nM
19 | – | O=C1Nc2ccc(F)cc2/C1=C1/Nc2ccccc2/C1=N\OCCN1CCCCC1 [Compound 35, (2Z,3E)-5′-fluoro-3-((2-(piperidin-1-yl)ethoxy)imino)-[2,3′-biindolinylidene]-2′-one hydrochloride] | – | 263 nM | 805 nM
20 | – | O=C1Nc2ccc(Cl)cc2/C1=C1/Nc2ccccc2/C1=N\OCCN1CCNCC1 [Compound 38, (2Z,3E)-5′-chloro-3-((2-(piperazin-1-yl)ethoxy)imino)-[2,3′-biindolinylidene]-2′-one dihydrochloride] | – | 11 nM | –
21 | – | CN1CCN(CCO/N=C2/C(=C3/C(=O)Nc4ccc(Cl)cc43)Nc3ccccc32)CC1 [Compound 39, (2Z,3E)-5′-chloro-3-((2-(4-methylpiperazin-1-yl)ethoxy)imino)-[2,3′-biindolinylidene]-2′-one dihydrochloride] | – | 37 nM | –
22 | – | O=C1Nc2ccc(Br)cc2/C1=C1/Nc2ccccc2/C1=N\OCCN1CCNCC1 [Compound 40, (2Z,3E)-5′-bromo-3-((2-(piperazin-1-yl)ethoxy)imino)-[2,3′-biindolinylidene]-2′-one dihydrochloride] | – | 10 nM | –
23 | – | O=C1Nc2ccc(I)cc2/C1=C1/Nc2ccccc2/C1=N\OCCN1CCNCC1 [Compound 42, (2Z,3E)-5′-iodo-3-((2-(piperazin-1-yl)ethoxy)imino)-[2,3′-biindolinylidene]-2′-one dihydrochloride] | – | 9 nM | –
24 | – | CN1CCN(CCO/N=C2/C(=C3/C(=O)Nc4ccc(I)cc43)Nc3ccccc32)CC1 [Compound 43, (2Z,3E)-5′-iodo-3-((2-(4-methylpiperazin-1-yl)ethoxy)imino)-[2,3′-biindolinylidene]-2′-one dihydrochloride] | – | 32 nM | –
25 | – | COc1ccc2c(c1)/C(=C1/Nc3ccccc3/C1=N\OCCN1CCNCC1)C(=O)N2 [Compound 46, (2Z,3E)-5′-methoxy-3-((2-(piperazin-1-yl)ethoxy)imino)-[2,3′-biindolinylidene]-2′-one dihydrochloride] | – | 17 nM | –
26 | – | COc1ccc2c(c1)/C(=C1/Nc3ccccc3/C1=N\OCCN1CCN(C)CC1)C(=O)N2 [Compound 47, (2Z,3E)-5′-methoxy-3-((2-(4-methylpiperazin-1-yl)ethoxy)imino)-[2,3′-biindolinylidene]-2′-one dihydrochloride] | – | 7 nM | –
